The values below come from patent publication US20170283440A1, “CARM1 INHIBITORS AND USES THEREOF” (Epizyme, Inc., priority 2014, published 2017).

SMILES strings stand for the structures. Like-named read-outs stand apart in the source and are kept apart here. Some results are limits rather than exact numbers.

Assay [1] addresses T1, Human CARM1 (PRMT4) (Homo sapiens, UniProt Q86X55).
T1 construct: Flag-CARM1-His was eluted with 200 ug/ml FLAG peptide in buffer A; made in house; host or cells: HEK 293F cells infected with recombinant baculovirus (pFastBacMam)
Nature of the assay: CARM1 enzyme assay on peptide substrate (3H-SAM Flashplate). The class given is biochemical. The conditions noted are these: CARM1 0.25 nM, 3H-SAM 30 nM, peptide 250 nM; read-out: Biochem IC50. The text has this:
S-adenosylmethionine (SAM), S-adenosylhomocysteine (SAH), bicine, Tween20, dimethylsulfoxide (DMSO), bovine skin gelatin (BSG), sodium butyrate and Tris(2-carboxyethyl)phosphine hydrochloride solution (TCEP) were purchased from Sigma-Aldrich at the highest level of purity possible. ^3H-SAM was purchase from American Radiolabeled Chemicals with a specific activity of 80 Ci/mmol. 384-well streptavidin Flashplates were purchased from PerkinElmer.
Peptide representative of human histone H3 residues 16-30 was synthesized with an N-terminal linker-affinity tag motif and a C-terminal amide cap by 21st Century Biochemicals. The peptide was purified by high-performance liquid chromatography (HPLC) to greater than 95% purity and confirmed by liquid chromatography mass spectrometry (LC-MS). The sequence was Biot-Ahx-[…]-amide and contained a monomethylated arginine at position 26 (SEQ ID NO.:1).
Human CARM1 (PRMT4) (NM_199141.1) transcript clone was amplified from an HEK 293 cDNA library, incorporating a flanking 5′ sequence encoding a FLAG tag ([…]) (SEQ ID NO.:2) fused directly to Ala 2 of CARM1 and 3′ sequence encoding a hexa His sequence ([…]) (SEQ ID NO.:3) fused directly to Ser 608. The gene sequence encoding isoform1 containing a deletion of amino acids 539-561 was amplified subsequently and subcloned into pFastBacMam (Viva Biotech).
Recombinant baculovirus were generated according to Bac-to-Bac kit instructions (Life Technologies). Protein over-expression was accomplished by infecting exponentially growing HEK 293F cell culture at 1.3×10^6 cell/ml with virus (MOI=10) in the presence of 8 mM sodium butyrate. Infections were carried out at 37° C. for 48 hours, harvested by centrifugation, and stored at −80° C. for purification.
Column was washed with 500 mM NaCl in buffer A and Flag-CARM1-His was eluted with 200 ug/ml FLAG peptide in buffer A. Pooled fractions were dialyzed in 20 mM Tris, 150 mM NaCl, 5% glycerol and 1 mM DTT, pH 7.8. The purity of recovered protein was 94.
The assays were all performed in a buffer consisting of 20 mM Bicine (pH=7.6), 1 mM TCEP, 0.005% BSG, and 0.002% Tween 20, prepared on the day of use. Compounds in 100% DMSO (1 ul) were spotted into a polypropylene 384-well V-bottom plates (Greiner) using a Platemate Plus outfitted with a 384-channel head (Thermo Scientific). DMSO (1 ul) was added to Columns 11, 12, 23, 24, rows A-H for the maximum signal control and 1 ul of SAH, a known product and inhibitor of CARM1, was added to columns 11, 12, 23, 24, rows I—P for the minimum signal control. A cocktail (40 ul) containing the CARM1 enzyme was added by Multidrop Combi (Thermo-Fisher). The compounds were allowed to incubate with CARM1 for 30 min at room temperature, then a cocktail (10 ul) containing ^3H-SAM and peptide was added to initiate the reaction (final volume=51 ul). The final concentrations of the components were as follows: CARM1 was 0.25 nM, ^3H-SAM was 30 nM, peptide was 250 nM, SAH in the minimum signal control wells was 1 mM, and the DMSO concentration was 2%. The assays were stopped by the addition of non-radiolabeled SAM (10 ul) to a final concentration of 300 uM, which dilutes the ^3H-SAM to a level where its incorporation into the peptide substrate is no longer detectable. 50 ul of the reaction in the 384-well polypropylene plate was then transferred to a 384-well Flashplate and the biotinylated peptides were allowed to bind to the streptavidin surface for at least 1 hour before being washed once with 0.1% Tween20 in a Biotek ELx405 plate washer. The plates were then read in a PerkinElmer TopCount plate reader to measure the quantity of ^3H-labeled peptide bound to the Flashplate surface, measured as disintegrations per minute (dpm) or alternatively, referred to as counts per minute (cpm).
where dpm=disintegrations per minute, cmpd=signal in assay well, and min and max are the respective minimum and maximum signal controls. […]

Assay [2] has as its system asymmetric di-methyl PABP1 in RKO cells. Nature of the assay: RKO methylation assay (In Cell Western for asymmetric di-methyl PABP1). In kind it is cell-based. The conditions noted are these: 48 hours incubation, read-out: Cellular IC50. The text has this: RKO adherent cells were purchased from ATCC (American Type Culture Collection), Manassas, Va., USA. DMEM/Glutamax medium, penicillin-streptomycin, heat inactivated fetal bovine serum, 0.05% trypsin and D-PBS were purchased from Life Technologies, Grand Island, N.Y., USA. Odyssey blocking buffer, 800CW goat anti-rabbit IgG (H+L) antibody, and Licor Odyssey infrared scanner were purchased from Licor Biosciences, Lincoln, Nebr., USA. Asymmetric di-methyl PABP1 antibody was purchased from Cell Signaling Technology, Danvers, Mass., USA. Methanol was purchased from VWR, Franklin, Mass., USA. 10% Tween 20 was purchased from KPL, Inc., Gaithersburg, Md., USA. Paraformaldehyde (PFA) was purchased from EM Sciences. DRAQ5 was purchased from Biostatus Limited, Leicestershire, UK.
RKO adherent cells were maintained in growth medium (DMEM/Glutamax medium supplemented with 10% v/v heat inactivated fetal bovine serum and 100 units/mL penicillin-streptomycin) and cultured at 37° C. under 5% CO2.
Compound (100 nL) from a 96-well source plate was added directly to 384 well cell plate. Plates were incubated at 37° C., 5% CO2 for 48 hours. After two days of incubation, plates were brought to room temperature outside of the incubator for ten minutes and blotted on paper towels to remove cell media. Cells were fixed for 20 minutes at room temperature by adding 50 ul of 8% PFA followed by aspiration of supernatant with the Biotek EL406 plate washer. Cells were then permeabilized by addition of 50 μL of ice cold 100% methanol directly to each well and incubated for 30 min at room temperature. After 30 min, plates were transferred to a Biotek EL406 plate washer and washed 2 times with 100 μL per well of wash buffer (IX PBS). Next 60 μL per well of Odyssey blocking buffer (Odyssey Buffer with 0.1% Tween 20 (v/v)) were added to each plate and incubated 1 hour at room temperature. Blocking buffer was removed and 20 μL per well of primary antibody was added (asymmetric-methyl PABP1) diluted 1:400 in Odyssey buffer with 0.1% Tween 20 (v/v)) and plates were incubated overnight (16 hours) at 4° C. Plates were washed 5 times with 100 μL per well of wash buffer. Next 20 μL per well of secondary antibody was added (1:800 800CW goat anti-rabbit IgG (H+L) antibody, 1:2000 DRAQ5 in Odyssey buffer with 0.1% Tween 20 (v/v)) and incubated for 1 hour at room temperature. The plates were washed 5 times with 100 μL per well wash buffer then 2 times with 100 μL per well of water. Plates were allowed to dry at room temperature then imaged on the Licor Odyssey machine which measures integrated intensity at 700 nm and 800 nm wavelengths. Both 700 and 800 channels were scanned.
First, the ratio for each well was determined by:
Each plate included fourteen control wells of DMSO only treatment (minimum inhibition) as well as fourteen control wells for maximum inhibition treated with 20 μM of a reference compound. The average of the ratio values for each control type was calculated and used to determine the percent […] for each test well in the plate. Reference compound was serially diluted three-fold in DMSO for a total of nine test concentrations, beginning at 20 μM.
Percent inhibition was determined and IC50 curves were generated using triplicate wells per concentration of compound.

T1 sequence (Q86X55 other isoform, or with tags, fused parts or gaps): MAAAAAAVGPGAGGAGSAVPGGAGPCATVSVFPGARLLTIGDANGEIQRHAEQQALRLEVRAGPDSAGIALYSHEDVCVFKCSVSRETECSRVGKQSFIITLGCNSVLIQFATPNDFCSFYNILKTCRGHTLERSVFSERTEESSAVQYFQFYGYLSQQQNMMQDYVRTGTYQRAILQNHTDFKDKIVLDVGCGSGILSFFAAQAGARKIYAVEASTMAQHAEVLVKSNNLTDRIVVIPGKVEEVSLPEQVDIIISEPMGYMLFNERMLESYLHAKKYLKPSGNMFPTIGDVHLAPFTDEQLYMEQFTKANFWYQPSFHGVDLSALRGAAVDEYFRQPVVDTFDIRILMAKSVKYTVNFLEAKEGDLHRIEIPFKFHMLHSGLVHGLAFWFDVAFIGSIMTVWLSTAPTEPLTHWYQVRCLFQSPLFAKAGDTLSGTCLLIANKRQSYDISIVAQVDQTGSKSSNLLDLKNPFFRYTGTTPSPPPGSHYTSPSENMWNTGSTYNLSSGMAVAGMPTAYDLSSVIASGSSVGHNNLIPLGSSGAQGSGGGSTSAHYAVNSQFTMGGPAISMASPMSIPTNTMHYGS

By IC50 is commonly meant the concentration that gives 50% inhibition. On to `CNCC(O)COc1cccc(-c2cc(N(C)C3CCOCC3)nc(N3CCOCC3)n2)c1` (centres unmarked) [Example 4-9], for which the IC50 is less than 0.1 µM in assay [1] and more than 20 µM in assay [2] (Homo sapiens).
As to `CNCC(O)COc1cccc(-c2cc(NC3CCOCC3)c3c(C#N)nn(C(C)C)c3n2)c1` (centres unmarked) [Example 5-2], the results for the IC50 in assay [1] and in assay [2] (Homo sapiens) were 0.1 to 1 µM and more than 20 µM, respectively.
In the case of `COc1cc(OCC(O)CN)cc(-c2cc(N3CCOCC3)c3cnn(C(C)C)c3n2)c1` (centres unmarked) [Example 5-4], the results for the half-inhibitory concentration (IC50) in assay [1] and in assay [2] (Homo sapiens) were less than 0.1 µM and 10 to 20 µM, respectively.
As for `CNCC(O)COc1cccc(-c2nc(N3[C@@H]4CC[C@H]3COC4)c3cnn(C4CC4)c3n2)c1` (some centres unmarked) [Example 5-5], the IC50 in assay [1] is 0.1 to 1 µM; in assay [2] (Homo sapiens) it was more than 20 µM.
Turning to `CNCC(O)COc1cc(OC)cc(-c2cc(C)n3ncc(C(C)C)c3n2)c1` (centres unmarked) [Example 5-6], the IC50 is less than 0.1 µM in assay [1] and more than 20 µM in assay [2] (Homo sapiens).
On to `CC(C)n1ncc2c(N[C@@H]3CO[C@H]4OCC[C@H]43)cc(-c3cccc(OCC(O)CN)c3)nc21` (some centres unmarked) [Example 5-8], for which the IC50 in assay [1] was less than 0.1 µM; in assay [2] (Homo sapiens), more than 20 µM.
In the case of `CNCC(O)COc1cc(OC)cc(-c2cc(-c3cnc4[nH]ccc4c3)c3cnn(C(C)C)c3n2)c1` (centres unmarked) [Example 5-9], the figures for the IC50 in assay [1] and in assay [2] (Homo sapiens) were less than 0.1 µM and more than 20 µM, respectively.
On to `CNCC(O)COc1cccc(-c2cc(N(C)C3CCOCC3)c3c(C)nn(C(C)C)c3n2)c1` (centres unmarked) [Example 6-2], for which the results for the IC50 in assay [1] and in assay [2] (Homo sapiens) were less than 0.1 µM and 10 to 20 µM, respectively.
As for `CNCC(O)COc1cc(O)cc(-c2cc(N3CCOCC3)c3cnn(C(C)C)c3n2)c1` (centres unmarked) [Example 6-4], the IC50 is less than 0.1 µM in assay [1] and more than 20 µM in assay [2] (Homo sapiens).
Consider `CC(C)n1ncc2c(N3CCOCC3)nc(-c3cccc(OCC(O)CN)c3)nc21` (centres unmarked) [Example 6-5], for which the IC50 in assay [1] was less than 0.1 µM; in assay [2] (Homo sapiens), more than 20 µM.
As for `CC(C)n1ncc2c(N[C@@H]3CO[C@H]4OCC[C@H]43)cc(-c3cccc(OCC(O)CN)c3)nc21` (some centres unmarked) [Example 6-8], the IC50 in assay [1] is less than 0.1 µM; in assay [2] it was more than 20 µM.
With `CNCC(O)COc1cccc(-c2cc(NCc3c(C)cc(C)nc3OC)c3cnn(C(C)C)c3n2)c1` (centres unmarked) [Example 6-9], the IC50 is less than 0.1 µM in assay [1] and more than 20 µM in assay [2] (Homo sapiens).
For `CNCC(O)COc1cc(N)cc(-c2cc(NC3CCOCC3)c3cnn(C(C)C)c3n2)c1` (centres unmarked) [Example 7-4], in that order: less than 0.1 µM and more than 20 µM.
For `CC(C)n1ncc2c(NC3CCOC3)nc(-c3cccc(OCC(O)CN)c3)nc21` (centres unmarked) [Example 7-5], in that order: less than 0.1 µM and more than 20 µM.
Take `CNCC(O)COc1cccc(-c2cc(N3CCOCC3)n3ncc(C(C)C)c3n2)c1` (centres unmarked) [Example 7-6]: the IC50 in assay [1] was 0.1 to 1 µM; in assay [2] (Homo sapiens), more than 20 µM.
In the case of `CC(C)n1ncc2c(N3CCOCC3)cc(-c3cc(F)cc(OCC(O)CN)c3)nc21` (centres unmarked) [Example 7-8], the half-inhibitory concentration (IC50) is less than 0.1 µM in assay [1] and more than 20 µM in assay [2] (Homo sapiens).
Regarding `CNCC(O)COc1cccc(-c2nc(N3CC4CCC(C3)O4)c3cnn(C4CC4)c3n2)c1` (centres unmarked) [Example 7-9], the IC50 in assay [1] is less than 0.1 µM; in assay [2] (Homo sapiens), 10 to 20 µM.
As for `CNCC(O)COc1cc(OC)cc(-c2cc(N3CCOCC3)c3cnn(C(C)C)c3n2)c1` (centres unmarked) [Example 8-4], the IC50 in assay [1] is less than 0.1 µM; in assay [2] (Homo sapiens), 10 to 20 µM.
As for `CNCC(O)COc1cccc(-c2nc(N3CCOCC3)c3cnn(C(C)C)c3n2)c1` (centres unmarked) [Example 8-5], the IC50 in assay [1] is less than 0.1 µM; in assay [2] (Homo sapiens) it was 10 to 20 µM.
The matching figures for `CNC[C@@H](O)COc1cccc(-c2cc(N3CCOCC3)n3ncc(C(C)C)c3n2)c1` [Example 8-6]: less than 0.1 µM and more than 20 µM.
In the case of `CNCC(O)COc1cccc(-c2nc(NCc3cnn(C)c3)c3cnn(C(C)(C)C)c3n2)c1` (centres unmarked) [Example 8-8], the IC50 in assay [1] was less than 0.1 µM; in assay [2] (Homo sapiens), more than 20 µM.
On to `CNCC(O)COc1cccc(-c2nc(NCc3nccs3)c3cnn(C4CC4)c3n2)c1` (centres unmarked) [Example 8-9], for which the values for the IC50 in assay [1] and in assay [2] (Homo sapiens) were 0.1 to 1 µM and 10 to 20 µM, respectively.
Regarding `CNCC(O)COc1cc(Cl)cc(-c2cc(NC3CCOC3)c3cnn(C(C)C)c3n2)c1` (centres unmarked) [Example 9-4], the 50% inhibitory concentration (IC50) in assay [1] is less than 0.1 µM; in assay [2] (Homo sapiens), more than 20 µM.
Take `CC(C)(C)n1ncc2c(N3CCOCC3)nc(-c3cccc(OCC(O)CN)c3)nc21` (centres unmarked) [Example 9-5]: the IC50 in assay [1] is less than 0.1 µM; in assay [2] (Homo sapiens), more than 20 µM.
Turning to `CNC[C@H](O)COc1cccc(-c2cc(N3CCOCC3)n3ncc(C(C)C)c3n2)c1` [Example 9-6], the IC50 was less than 0.1 µM in assay [1] and more than 20 µM in assay [2] (Homo sapiens).
For `CC(C)c1cnn2c(N3CCOCC3)cc(-c3cccc(OC[C@@H](O)CN)c3)nc12` [Example 9-8], the IC50 is less than 0.1 µM in assay [1] and more than 20 µM in assay [2] (Homo sapiens).
For `CNCC(O)COc1cc(Cl)cc(-c2cc(N(C)C3CCOCC3)n3ncc(C(C)(C)C)c3n2)c1` (centres unmarked) [Example 9-9], the IC50 was 0.1 to 1 µM in assay [1] and more than 20 µM in assay [2] (Homo sapiens).
The matching figures for `CNCC(O)COc1cc(OC)cc(-c2cc(Nc3cncnc3)c3cnn(C(C)C)c3n2)c1` (centres unmarked) [Example 10-4]: less than 0.1 µM and more than 20 µM.
